Measured values as given in US20210017295A1, “BISPECIFIC BINDING AGENTS AND USES THEREOF” (MEMORIAL SLOAN KETTERING CANCER CENTER, priority 2018, published 2021).
Where two headings read alike, the source gives them in different places.

System: s.c. HER2(+) BT-474 tumors
Assay type: in vivo, mouse
[1] = PRIT, CA 28% w/w 70 μg, 24 h p.i., mean ± SD
[2] = no PRIT, only ~16.8 MBq (90 pmol), 24 h p.i., mean ± SEM
[3] = optimized PRIT, 1.0 h p.i., mean ± SEM
[4] = optimized PRIT, 24 h p.i., mean ± SEM
[5] = optimized PRIT, 96 h p.i., mean ± SEM
[6] = optimized PRIT, 336 h p.i., mean ± SEM
[7] = optimized PRIT, […] p.i., mean ± SEM

## Nc1ccc(CC2CN(CC(=O)[O-])CCN(CC(=O)[O-])CCN(CC(=O)[O-])CCN2CC(=O)[O-])cc1.[177Lu+3] (centres unmarked) [^177Lu-DOTA-Bn]
[1]
  ^177Lu activity in Kidneys: 0.75 ± 0.08 % IA/g
  ^177Lu activity in Large Int.: 0.19 ± 0.04 % IA/g
  ^177Lu activity in Liver: 0.33 ± 0.02 % IA/g
  ^177Lu activity in Lungs: 0.25 ± 0.05 % IA/g
  ^177Lu activity in Muscle: 0.08 ± 0.02 % IA/g
  ^177Lu activity in Small Int.: 0.07 ± 0.01 % IA/g
  ^177Lu activity in Spleen: 0.73 ± 0.18 % IA/g
  ^177Lu activity in Stomach: 0.05 ± 0.02 % IA/g
  ^177Lu activity in Tumor: 6.98 ± 3.15 % IA/g
[2]
  ^177Lu activity in Blood: 0.002±0.00 % IA/g
  ^177Lu activity in Kidneys: 0.38±0.01 % IA/g
  ^177Lu activity in Liver: 0.04 ± 0.01 % IA/g
  ^177Lu activity in Spleen: 0.02 ± 0.00 % IA/g
  ^177Lu activity in Tumor: 0.07±0.01 % IA/g
Optimized PRIT, 1-24 h p.i.
  ^177Lu activity in tumor, range: 5-8 % IA/g
[3]
  Tumor-to-tissue ratio, Blood: 10.7 ± 1.3
  Tumor-to-tissue ratio, Bone: 37.3 ± 6.0
  Tumor-to-tissue ratio, Heart: 38.7 ± 6.7
  Tumor-to-tissue ratio, Kidneys: 5.7 ± 0.5
  Tumor-to-tissue ratio, Large Int.: 3.0 ± 0.5
  Tumor-to-tissue ratio, Liver: 8.7 ± 0.9
  Tumor-to-tissue ratio, Lungs: 16.6 ± 2.3
  Tumor-to-tissue ratio, Muscle: 35.7 ± 3.6
  Tumor-to-tissue ratio, Small Int.: 6.0 ± 1.5
  Tumor-to-tissue ratio, Spleen: 44.9 ± 6.3
  Tumor-to-tissue ratio, Stomach: 17.8 ± 4.6
  ^177Lu activity in Blood: 0.62 ± 0.06 % IA/g
  ^177Lu activity in Bone: 0.18 ± 0.03 % IA/g
  ^177Lu activity in Heart: 0.17 ± 0.03 % IA/g
  ^177Lu activity in Kidneys: 1.17 ± 0.02 % IA/g
  ^177Lu activity in Large Int.: 2.22 ± 0.37 % IA/g
  ^177Lu activity in Liver: 0.76 ± 0.06 % IA/g
  ^177Lu activity in Lungs: 0.40 ± 0.05 % IA/g
  ^177Lu activity in Muscle: 0.19 ± 0.01 % IA/g
  ^177Lu activity in Small Int.: 1.11 ± 0.27 % IA/g
  ^177Lu activity in Spleen: 0.15 ± 0.02 % IA/g
  ^177Lu activity in Stomach: 0.37 ± 0.09 % IA/g
  ^177Lu activity in Tumor: 6.65 ± 0.46 % IA/g
[4]
  Tumor-to-tissue ratio, Blood: 26.7±9.0
  Tumor-to-tissue ratio, Bone: 189.6 ± 46.7
  Tumor-to-tissue ratio, Heart: 105.3 ± 27.7
  Tumor-to-tissue ratio, Kidneys: 10.4±1.3
  Tumor-to-tissue ratio, Large Int.: 41.7 ± 5.4
  Tumor-to-tissue ratio, Liver: 28.3 ± 8.3
  Tumor-to-tissue ratio, Lungs: 38.7 ± 10.0
  Tumor-to-tissue ratio, Muscle: 118.5 ± 26.8
  Tumor-to-tissue ratio, Small Int.: 140.4 ± 22.8
  Tumor-to-tissue ratio, Spleen: 12.6 ± 4.5
  Tumor-to-tissue ratio, Stomach: 122.3 ± 17.1
[5]
  Tumor-to-tissue ratio, Blood: 63.6 ± 12.2
  Tumor-to-tissue ratio, Bone: 6.0 ± 1.7
  Tumor-to-tissue ratio, Heart: 42.4 ± 10.3
  Tumor-to-tissue ratio, Kidneys: 8.4 ± 1.7
  Tumor-to-tissue ratio, Large Int.: 31.8 ± 8.6
  Tumor-to-tissue ratio, Liver: 10.1 ± 2.6
  Tumor-to-tissue ratio, Lungs: 34.7 ± 8.8
  Tumor-to-tissue ratio, Muscle: 22.5 ± 8.7
  Tumor-to-tissue ratio, Small Int.: 44.0 ± 12.6
  Tumor-to-tissue ratio, Spleen: 12.9 ± 2.9
  Tumor-to-tissue ratio, Stomach: 57.3 ± 13.7
  ^177Lu activity in Blood: 0.04 ± 0.00 % IA/g
  ^177Lu activity in Bone: 0.38 ± 0.09 % IA/g
  ^177Lu activity in Heart: 0.05 ± 0.01 % IA/g
  ^177Lu activity in Kidneys: 0.27 ± 0.03 % IA/g
  ^177Lu activity in Large Int.: 0.07 ± 0.01 % IA/g
  ^177Lu activity in Liver: 0.23 ± 0.04 % IA/g
  ^177Lu activity in Lungs: 0.07 ± 0.01 % IA/g
  ^177Lu activity in Muscle: 0.10 ± 0.03 % IA/g
  ^177Lu activity in Small Int.: 0.05 ± 0.01 % IA/g
  ^177Lu activity in Spleen: 0.18 ± 0.02 % IA/g
  ^177Lu activity in Stomach: 0.04 ± 0.01 % IA/g
  ^177Lu activity in Tumor: 2.29±0.41 % IA/g
[6]
  Tumor-to-tissue ratio, Blood: 160.8 ± 30.3
  Tumor-to-tissue ratio, Bone: 10.0 ± 3.6
  Tumor-to-tissue ratio, Heart: 37.8 ± 7.7
  Tumor-to-tissue ratio, Kidneys: 3.8 ± 0.9
  Tumor-to-tissue ratio, Large Int.: 75.6 ± 26.4
  Tumor-to-tissue ratio, Liver: 3.7 ± 1.0
  Tumor-to-tissue ratio, Lungs: 29.2 ± 8.2
  Tumor-to-tissue ratio, Muscle: 64.3 ± 18.4
  Tumor-to-tissue ratio, Small Int.: 116.9 ± 30.0
  Tumor-to-tissue ratio, Spleen: 3.5 ± 0.9
  Tumor-to-tissue ratio, Stomach: 51.4 ± 12.4
  ^177Lu activity in Blood: 0.002 ± 0.00 % IA/g
  ^177Lu activity in Bone: 0.03 ± 0.01 % IA/g
  ^177Lu activity in Heart: 0.01 ± 0.00 % IA/g
  ^177Lu activity in Kidneys: 0.08 ± 0.01 % IA/g
  ^177Lu activity in Large Int.: 0.004 ± 0.00 % IA/g
  ^177Lu activity in Liver: 0.09 ± 0.02 % IA/g
  ^177Lu activity in Lungs: 0.01 ± 0.00 % IA/g
  ^177Lu activity in Muscle: 0.01 ± 0.00 % IA/g
  ^177Lu activity in Small Int.: 0.003 ± 0.00 % IA/g
  ^177Lu activity in Spleen: 0.09 ± 0.02 % IA/g
  ^177Lu activity in Stomach: 0.01 ± 0.00 % IA/g
  ^177Lu activity in Tumor: 0.32±0.06 % IA/g
Optimized PRIT, R^2=0.894
  approximate tumor clearance half-life: ~38.6 h
[7]
  Tumor-to-tissue ratio, Blood: 12.1 ± 1.5
  Tumor-to-tissue ratio, Bone: 37.5 ± 4.3
  Tumor-to-tissue ratio, Heart: 37.5 ± 5.2
  Tumor-to-tissue ratio, Kidneys: 5.2 ± 0.5
  Tumor-to-tissue ratio, Large Int.: 1.6 ± 0.3
  Tumor-to-tissue ratio, Liver: 12.6 ± 1.6
  Tumor-to-tissue ratio, Lungs: 13.5 ± 1.6
  Tumor-to-tissue ratio, Muscle: 25.8 ± 5.1
  Tumor-to-tissue ratio, Small Int.: 10.6 ± 3.7
  Tumor-to-tissue ratio, Spleen: 14.9 ± 1.8
  Tumor-to-tissue ratio, Stomach: 23.6 ± 7.7
  ^177Lu activity in Blood: 0.41 ± 0.04 % IA/g
  ^177Lu activity in Bone: 0.13 ± 0.01 % IA/g
  ^177Lu activity in Heart: 0.13 ± 0.02 % IA/g
  ^177Lu activity in Kidneys: 0.95 ± 0.05 % IA/g
  ^177Lu activity in Large Int.: 3.18 ± 0.52 % IA/g
  ^177Lu activity in Liver: 0.39 ± 0.04 % IA/g
  ^177Lu activity in Lungs: 0.37 ± 0.03 % IA/g
  ^177Lu activity in Muscle: 0.19 ± 0.04 % IA/g
  ^177Lu activity in Small Int.: 0.47 ± 0.16 % IA/g
  ^177Lu activity in Spleen: 0.33 ± 0.03 % IA/g
  ^177Lu activity in Stomach: 0.21 ± 0.07 % IA/g
  ^177Lu activity in Tumor: 4.95 ± 0.34 % IA/g
